The values below are quoted from earlier work in patent US20140004171A1, “TREATMENT OF ENDOMETRIOSIS BY INTRAVAGINAL ADMINISTRATION OF A LOW DOSE OF A SELECTIVE PROGESTERONE RECEPTOR MODULATOR (SPRM), ANTI-PROGESTIN, OR ANTI-PROGESTATIONAL AGENT” (ARSTAT Inc., priority 2011, published 2014).

For series [1], the system named is liver enzymes. Particulars: oral.
Series [2] has as its system endometrial lining of the uterus. Particulars: oral.
For series [3], the system named is uterine and fibroid volumes.
Series [4] relates to women with endometriosis. Conditions: oral, 5 mg daily for 6 months, seven women.
The test system of series [5] is women with endometriosis. Particulars: oral, 100 mg daily for three months.
Series [6] relates to women with endometriosis. Conditions: oral, 50 mg daily for 6 months, nine women.

For `COCC(=O)[C@@]1(OC(C)=O)CC[C@H]2[C@@H]3CCC4=CC(=O)CCC4=C3[C@@H](c3ccc(N(C)C)cc3)C[C@@]21C` [CDB-4124], the “Safety finding that suspended Phase III studies” value in series [1] was “significant increases in liver enzymes”.

For `COC[C@]1(OC)CC[C@H]2[C@@H]3CCC4=CC(=O)CCC4=C3[C@@H](c3ccc(/C=N/O)cc3)C[C@@]21C` [asoprisnil], the “Safety finding that terminated Phase III studies” value in series [2] is “changes in the endometrial lining of the uterus”.

Consider `CC#C[C@]1(O)CC[C@H]2[C@@H]3CCC4=CC(=O)CCC4=C3[C@@H](c3ccc(N(C)C)cc3)C[C@@]21C` [mifepristone], for which the “Oral dose effective in the reduction of uterine and fibroid volumes and related symptoms” value in series [3] is on record as ≥ 10 mg/day. In addition, in series [3] (oral, 2.5 mg/day), the Incidence of amenorrhea entry is on record as “lower incidence of amenorrhea” and the “Reduction of uterine volume” value is “appreciably smaller reduction of uterine volume”. Moreover, the “Ability to reduce uterine volume and eliminate some fibroid-related symptoms” value in series [3] (oral, 5 mg/day) is listed as “limited”. In addition, in series [3] (oral, 10 mg/day or higher), the “Incidence of side effects (endometrial hyperplasia, hot flashes, elevated liver enzymes)” value is “greater than desired”. Further, in series [4], the Cyclic bleeding ceased entry is “all patients”, the “Decrease of mean endometriosis scores” value is 20% and the Pelvic pain improved result is recorded as “six of seven”. Also, in series [5] (six normally cycling women with endometriosis), the Amenorrhea reported result is on record as “all study participants”. In series [5] (six women), the “Change in the extent of endometriosis (follow-up laparoscopy)” value is reported as “no significant change” and the “Improvement in pelvic pain” value is reported as “all women”. In series [6], the Amenorrhea without hypoestrogenism result was “All patients”; the “Pelvic pain and uterine cramping improved” value is recorded as “all patients”; the “Regression of endometriosis (laparoscopic assessment of endometrial implants, AFS score)” value is given as 55%.
